# Where two headings read alike, the source gives them in different places.
# What was measured:
# Test in all cases: cells
# Assay type in all cases: cell-based
# Settings in all cases: Homo sapiens; for IC (TGI): read-out: TGI
# [1] = test system: MDA-MB-231
# Excerpt: (§1) The aim of this assay is to evaluate the in vitro cytostatic (ability to delay or arrest tumor cell growth) or cytotoxic (ability to kill tumor cells) activity of the samples being tested.
# (§2) Evaluation of Cytotoxic Activity Using the SBR Colorimetric Assay
# (§3) A colorimetric type of assay, using sulforhodamine B (SRB) reaction has been adapted for a quantitative measurement of cell growth and viability (following the technique described by Skehan P et al. J. Natl. Cancer Inst. 1990, 82, 1107-1112).
# (§4) This form of assay employs SBS-standard 96-well cell culture microplates (Faircloth et al. Methods in cell science, 1988, 11(4), 201-205; Mosmann et al, Journal of. Immunological. Methods, 1983, 65(1-2), 55-63). All the cell lines used in this study, derived from different types of human cancer, were obtained from the American Type Culture Collection (ATCC).
# (§5) Cells were maintained in Dulbecco's Modified Eagle Medium (DMEM) supplemented with 10% Fetal Bovine Serum (FBS), 2 mM L-glutamine, 100 U/mL penicillin and 100 U/mL streptomycin at 37° C., 5% CO2 and 98% humidity. For the experiments, cells were harvested from subconfluent cultures using trypsinization and resuspended in fresh medium before counting and plating.
# (§6) Cells were seeded in 96 well microtiter plates at 5×10^3 cells per well in aliquots of 150 μL, and allowed to attach to the plate surface for 18 hours in drug free medium. One control (untreated) plate of each cell line was fixed (as described below) and used for time zero reference value. Afterwards, test samples were added to the cultures in ten serial dilutions, in aliquots of 50 μL, ranging from 10 to 0.00262 μg/mL. After 48 hours exposure, the antitumor effect was estimated by the SRB method: Briefly, cells were washed twice with PBS, fixed for 15 min in 1% glutaraldehyde solution, rinsed twice in PBS, and stained in 0.4% SRB solution for 30 min at room temperature. Cells were then rinsed several times with 1% acetic acid solution and air-dried. SRB was then extracted in 10 mM trizma base solution and the absorbance measured in an automated spectrophotometric plate reader at 490 nm. Cell survival was expressed as percentage of control cell growth. The final effect of the sample being tested was estimated by applying the NCI algorithm (Boyd M R and Paull K D. Drug Dev. Res. 1995, 34, 91-104).
# (§7) Using the mean±SD of triplicate cultures, a dose-response curve was automatically generated using nonlinear regression analysis. Three reference parameters were calculated (NCI algorithm) by automatic interpolation: GI50=concentration that produces 50% growth inhibition; TGI=total growth inhibition (cytostatic effect) and LC50=concentration that produces 50% net cell killing (cytotoxic effect).
# [2] = test system: HT29
# Excerpt: as §1, §2, §3, §4, §5, §6, §7
# [3] = test system: A549
# Excerpt: as §1, §2, §3, §4, §5, §6, §7
# [4] = MDA-MB-231, 48 h, read-out: LC50
# [5] = MDA-MB-231, 48 hours exposure, SRB, 50% net cell killing (cytotoxic effect), read-out: LC50 (the source's name)
# [6] = MDA-MB-231, 48 hours exposure, SRB, concentration that produces 50% growth inhibition, read-out: GI50
# [7] = MDA-MB-231, 48 hours exposure, SRB, total growth inhibition (cytostatic effect)
# [8] = HT-29, HT29, 48 hours exposure, SRB, 50% net cell killing (cytotoxic effect), read-out: LC50 (the source's name)
# [9] = HT-29, HT29, 48 hours exposure, SRB, concentration that produces 50% growth inhibition, read-out: GI50
# [10] = HT-29, HT29, 48 hours exposure, SRB, total growth inhibition (cytostatic effect)
# [11] = A549, 48 hours exposure, SRB, 50% net cell killing (cytotoxic effect), read-out: LC50 (the source's name)
# [12] = A549, 48 hours exposure, SRB, concentration that produces 50% growth inhibition, read-out: GI50
# [13] = A549, 48 hours exposure, SRB, total growth inhibition (cytostatic effect)
Structure (SMILES),"GI50 ([1]; MDA-MB-231, 48 h)","CC50 [1, 4]","IC (TGI) ([1]; MDA-MB-231, 48 h)","GI50 ([2]; HT-29, 48 h)","CC50 ([2]; HT-29, 48 h, read-out: LC50)","IC (TGI) ([2]; HT-29, 48 h)","GI50 ([3]; A549, 48 h)","CC50 ([3]; A549, 48 h, read-out: LC50)","IC (TGI) ([3]; A549, 48 h)","CC50 [1, 5]","GI50 [1, 6]","IC (TGI) [1, 7]","CC50 [2, 8]","GI50 [2, 9]","IC (TGI) [2, 10]","CC50 [3, 11]","GI50 [3, 12]","IC (TGI) [3, 13]"
COC1=CC[C@@H]([C@@H](C)/C=C(C)/C=C\C=C\C(=O)N[C@H](C(=O)N/C=C\C[C@H](C/C=C(\C)Cl)OC(N)=O)C(C)(C)C)OC1=O [Compound 8],3.46 nM,41.2 nM,0.0101 µM,2.14 nM,6.27 nM,3.13 nM,3.63 nM,> 1650 nM,0.013 µM,,,,,,,,,
COC1=CCC(C(C)/C=C(C)/C=C/C=C\C(=O)NC(C(=O)N/C=C\CC(C/C=C(\C)Cl)OC(N)=O)C(C)C)OC1=O (stereo not drawn) [Compound 6],,,,,,,,,,15.5 nM,0.49 nM,0.00321 µM,4.9 nM,0.591 nM,1.01 nM,> 1640 nM,0.76 nM,> 1.64 µM
COC1=CC[C@@H]([C@@H](C)/C=C(C)/C=C\C=C/C(=O)N[C@H](C(=O)N/C=C\C[C@@H](O)C/C=C(\C)Cl)C(C)(C)C)OC1=O [Compound 30a],,,,,,,,,,85.2 nM,1.95 nM,0.00941 µM,10.1 nM,1.35 nM,2.13 nM,> 1780 nM,2.31 nM,0.137 µM
COC1=CC[C@@H]([C@@H](C)/C=C(C)/C=C\C=C/C(=O)N[C@H](C(=O)N/C=C\C[C@H](C/C=C(\C)Cl)OC(N)=O)C(C)C)OC1=O [Compound 5],,,,,,,,,,4.9 nM,0.103 nM,0.000456 µM,> 169 nM,0.0439 nM,0.128 nM,> 169 nM,0.0608 nM,0.000321 µM
C/C=C\C[C@H](O)C/C=C\NC(=O)[C@@H](NC(=O)\C=C/C=C\C(C)=C\[C@H](C)[C@@H]1CC=C(OC)C(=O)O1)C(C)(C)C [Compound 30b],,,,,,,,,,5110 nM,20.8 nM,0.511 µM,4730 nM,9.84 nM,92.7 nM,> 18900 nM,22.7 nM,0.322 µM
C/C(Cl)=C\C[C@H](O)C/C=C\NC(=O)[C@@H](NC(=O)\C=C/C=C\C(C)=C\[C@H](C)[C@@H]1CC=CC(=O)O1)C(C)(C)C [Compound 30f],,,,,,,,,,1610 nM,694 nM,1.07 µM,1050 nM,488 nM,713 nM,919 nM,488 nM,0.657 µM
COC1=CC[C@@H]([C@@H](C)/C=C(C)/C=C\C=C\C(=O)N[C@H](C(=O)N/C=C\C[C@H](C/C=C(\C)Cl)O[Si](C)(C)C(C)(C)C)C(C)(C)C)OC1=O [Compound 29e],,,,,,,,,,2070 nM,1140 nM,1.48 µM,2360 nM,2070 nM,2210 nM,2660 nM,1150 nM,1.77 µM
COC1=CC[C@@H]([C@@H](C)/C=C(C)/C=C/C=C/C(=O)N[C@H](C(=O)N/C=C\C[C@H](C/C=C(\C)Cl)OC(N)=O)C(C)(C)C)OC1=O [Compound 3],0.924 nM,9.57 nM,0.00247 µM,0.445 nM,> 165 nM,0.759 nM,1.02 nM,> 165 nM,0.00429 µM,,,,,,,,,
COC1=CC[C@@H]([C@@H](C)/C=C(C)/C=C\C=C/C(=O)N[C@H](C(=O)N/C=C\C[C@H](C/C=C(\C)Cl)O[Si](C)(C)C(C)(C)C)C(C)(C)C)OC1=O [Compound 29a],,,,,,,,,,6200 nM,1180 nM,2.8 µM,4430 nM,605 nM,1420 nM,8560 nM,886 nM,3.4 µM
COC1=CC[C@@H]([C@@H](C)/C=C(C)/C=C\C=C/C(=O)N[C@@H](Cc2ccccc2)C(=O)N/C=C\C[C@@H](O)C/C=C(\C)Cl)OC1=O [Compound 30d],,,,,,,,,,> 16.7 nM,0.31 nM,0.000703 µM,> 16.7 nM,0.132 nM,0.251 nM,> 16.7 nM,0.318 nM,0.00106 µM
COC1=CC[C@@H]([C@@H](C)/C=C(C)/C=C\C=C/C(=O)N[C@@H](Cc2ccccc2)C(=O)N/C=C\C[C@H](C/C=C(\C)Cl)O[Si](C)(C)C(C)(C)C)OC1=O [Compound 29d],,,,,,,,,,1830 nM,1100 nM,1.39 µM,928 nM,829 nM,872 nM,1380 nM,464 nM,0.801 µM
COC1=CC[C@@H]([C@@H](C)/C=C(C)/C=C/C=C/C(=O)N[C@H](C(=O)N/C=C\C[C@H](C/C=C(\C)Cl)O[Si](C)(C)C(C)(C)C)C(C)(C)C)OC1=O [Compound 37],,,,,,,,,,> 14800 nM,3100 nM,5.61 µM,10000 nM,1920 nM,2950 nM,13900 nM,3540 nM,6.64 µM
COC1=CC[C@@H]([C@@H](C)/C=C(C)/C=C\C=C/C(=O)N[C@H](C(=O)N/C=C\C[C@@H](C/C=C(\C)Cl)OC(N)=O)C(C)C)OC1=O [(21S)-5],,,,,,,,,,103 nM,4.56 nM,0.0186 µM,3.88 nM,2.53 nM,2.87 nM,> 1690 nM,6.92 nM,0.0287 µM
COC1=CC[C@@H]([C@@H](C)/C=C(C)/C=C\C=C/C(=O)N[C@H](C(=O)N/C=C\C[C@H](O)C/C=C(\C)Cl)C(C)(C)C)OC1=O [(21S)-30a],,,,,,,,,,284 nM,2.49 nM,0.0213 µM,> 1630 nM,2.66 nM,3.02 nM,> 1630 nM,3.73 nM,0.195 µM

# Source: patent US8324406B2, “Antitumoral dihydropyran-2-one compounds” (priority 2006, dated 2012)
